According to the supplement of paper PMC10307832:

Experiments:
Assay in all cases: relative viability (nuclei count vs DMSO), 5 days (fraction); higher = more cells survive
Ruboxistaurin + OSI-027 = compound: CN(C)C[C@@H]1CCn2cc(c3ccccc32)C2=C(C(=O)NC2=O)c2cn(c3ccccc23)CCO1 [Ruboxistaurin] + COc1cccc2cc(-c3nc([C@H]4CC[C@H](C(=O)O)CC4)n4ncnc(N)c34)[nH]c12 [OSI-027] (partner 0.5 µM)
In short: (§1)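 Lung cancer cell lines in 1536-well plates were dosed by pin tool the day after seeding, either with one drug alone or with a fixed anchor-drug dose plus five library-drug doses (not always all listed) in √10 steps. After 5 days, cells were fixed and their nuclei stained in one step (final 0.05% Triton X-100, 1% formaldehyde, 1 ug/ml Hoechst), then counted on 4× images. Relative viability is the nuclei count in treated wells divided by that in vehicle wells. Values are medians of duplicate plates.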

[1] = compound: CN(C)C[C@@H]1CCn2cc(c3ccccc32)C2=C(C(=O)NC2=O)c2cn(c3ccccc23)CCO1 [Ruboxistaurin] + CC(C)C[C@H](NC(=O)[C@H](Cc1ccccc1)NC(=O)c1cnccn1)B(O)O [Bortezomib] (partner 0.002 µM)
In short: as §1

[2] = compound: CN(C)C[C@@H]1CCn2cc(c3ccccc32)C2=C(C(=O)NC2=O)c2cn(c3ccccc23)CCO1 [Ruboxistaurin] + Cc1cc(Nc2cc(N3CCN(C)CC3)nc(Sc3ccc(NC(=O)C4CC4)cc3)n2)n[nH]1 [Tozasertib] (partner 0.1 µM)
In short: as §1

[3] = compound: CN(C)C[C@@H]1CCn2cc(c3ccccc32)C2=C(C(=O)NC2=O)c2cn(c3ccccc23)CCO1 [Ruboxistaurin] + CC(=O)c1c(C)c2cnc(Nc3ccc(N4CCNCC4)cn3)nc2n(C2CCCC2)c1=O [Palbociclib] (partner 0.5 µM)
In short: as §1

[4] = compound: CN(C)C[C@@H]1CCn2cc(c3ccccc32)C2=C(C(=O)NC2=O)c2cn(c3ccccc23)CCO1 [Ruboxistaurin] + Nc1nc2[nH]cc(CCc3ccc(C(=O)N[C@@H](CCC(=O)O)C(=O)O)cc3)c2c(=O)[nH]1 [Pemetrexed] (partner 0.2 µM)
In short: as §1

NCI-H2087
relative viability (Ruboxistaurin + OSI-027; first compound 0.08 µM): 0.627
relative viability (Ruboxistaurin + OSI-027; first compound 0.8 µM): 0.492
relative viability (Ruboxistaurin + OSI-027; first compound 2.53 µM): 0.449
relative viability (Ruboxistaurin + OSI-027; first compound 8 µM): 0.309
relative viability ([1]; first compound 0.08 µM): 0.794
relative viability ([1]; first compound 0.8 µM): 0.615
relative viability ([1]; first compound 2.53 µM): 0.798
relative viability ([1]; first compound 8 µM): 1.04
relative viability ([2]; first compound 0.08 µM): 0.234
relative viability ([2]; first compound 0.8 µM): 0.192
relative viability ([2]; first compound 2.53 µM): 0.241
relative viability ([2]; first compound 8 µM): 0.159
relative viability ([3]; first compound 0.08 µM): 0.28
relative viability ([3]; first compound 0.8 µM): 0.253
relative viability ([3]; first compound 2.53 µM): 0.285
relative viability ([3]; first compound 8 µM): 0.291
relative viability ([4]; first compound 0.08 µM): 0.641
relative viability ([4]; first compound 0.8 µM): 0.679
relative viability ([4]; first compound 2.53 µM): 0.662
relative viability ([4]; first compound 8 µM): 0.693

NCI-H2023
relative viability (Ruboxistaurin + OSI-027; first compound 0.08 µM): 0.438
relative viability (Ruboxistaurin + OSI-027; first compound 0.8 µM): 0.309
relative viability (Ruboxistaurin + OSI-027; first compound 2.53 µM): 0.271
relative viability (Ruboxistaurin + OSI-027; first compound 8 µM): 0.158
relative viability ([1]; first compound 0.08 µM): 1.1
relative viability ([1]; first compound 0.8 µM): 0.898
relative viability ([1]; first compound 2.53 µM): 1.06
relative viability ([1]; first compound 8 µM): 0.819
relative viability ([2]; first compound 0.08 µM): 0.327
relative viability ([2]; first compound 0.8 µM): 0.256
relative viability ([2]; first compound 2.53 µM): 0.207
relative viability ([2]; first compound 8 µM): 0.181
relative viability ([3]; first compound 0.08 µM): 0.381
relative viability ([3]; first compound 0.8 µM): 0.31
relative viability ([3]; first compound 2.53 µM): 0.333
relative viability ([3]; first compound 8 µM): 0.393
relative viability ([4]; first compound 0.08 µM): 0.228
relative viability ([4]; first compound 0.8 µM): 0.188
relative viability ([4]; first compound 2.53 µM): 0.224
relative viability ([4]; first compound 8 µM): 0.151

CAL-12T
relative viability (Ruboxistaurin + OSI-027; first compound 0.08 µM): 0.797
relative viability (Ruboxistaurin + OSI-027; first compound 0.8 µM): 0.449
relative viability (Ruboxistaurin + OSI-027; first compound 2.53 µM): 0.69
relative viability (Ruboxistaurin + OSI-027; first compound 8 µM): 0.391
relative viability ([1]; first compound 0.08 µM): 1.12
relative viability ([1]; first compound 0.8 µM): 0.981
relative viability ([1]; first compound 2.53 µM): 1.06
relative viability ([1]; first compound 8 µM): 1.11
relative viability ([2]; first compound 0.08 µM): 0.371
relative viability ([2]; first compound 0.8 µM): 0.292
relative viability ([2]; first compound 2.53 µM): 0.301
relative viability ([2]; first compound 8 µM): 0.211
relative viability ([3]; first compound 0.08 µM): 0.476
relative viability ([3]; first compound 0.8 µM): 0.426
relative viability ([3]; first compound 2.53 µM): 0.419
relative viability ([3]; first compound 8 µM): 0.483
relative viability ([4]; first compound 0.08 µM): 1.35
relative viability ([4]; first compound 0.8 µM): 1.19
relative viability ([4]; first compound 2.53 µM): 1.12
relative viability ([4]; first compound 8 µM): 1.28

NCI-H2085
relative viability (Ruboxistaurin + OSI-027; first compound 0.08 µM): 0.731
relative viability (Ruboxistaurin + OSI-027; first compound 0.8 µM): 0.521
relative viability (Ruboxistaurin + OSI-027; first compound 2.53 µM): 0.791
relative viability (Ruboxistaurin + OSI-027; first compound 8 µM): 0.446
relative viability ([1]; first compound 0.08 µM): 1.07
relative viability ([1]; first compound 0.8 µM): 0.987
relative viability ([1]; first compound 2.53 µM): 1.09
relative viability ([1]; first compound 8 µM): 1.17
relative viability ([2]; first compound 0.08 µM): 0.846
relative viability ([2]; first compound 0.8 µM): 0.74
relative viability ([2]; first compound 2.53 µM): 0.773
relative viability ([2]; first compound 8 µM): 0.797
relative viability ([3]; first compound 0.08 µM): 0.472
relative viability ([3]; first compound 0.8 µM): 0.479
relative viability ([3]; first compound 2.53 µM): 0.452
relative viability ([3]; first compound 8 µM): 0.56
relative viability ([4]; first compound 0.08 µM): 1.07
relative viability ([4]; first compound 0.8 µM): 0.868
relative viability ([4]; first compound 2.53 µM): 0.944
relative viability ([4]; first compound 8 µM): 0.904

NCI-H650
relative viability (Ruboxistaurin + OSI-027; first compound 0.08 µM): 0.662
relative viability (Ruboxistaurin + OSI-027; first compound 0.8 µM): 0.49
relative viability (Ruboxistaurin + OSI-027; first compound 2.53 µM): 0.584
relative viability (Ruboxistaurin + OSI-027; first compound 8 µM): 0.523
relative viability ([1]; first compound 0.08 µM): 0.816
relative viability ([1]; first compound 0.8 µM): 0.698
relative viability ([1]; first compound 2.53 µM): 0.927
relative viability ([1]; first compound 8 µM): 0.915
relative viability ([2]; first compound 0.08 µM): 0.81
relative viability ([2]; first compound 0.8 µM): 0.685
relative viability ([2]; first compound 2.53 µM): 0.82
relative viability ([2]; first compound 8 µM): 0.863
relative viability ([3]; first compound 0.08 µM): 0.339
relative viability ([3]; first compound 0.8 µM): 0.337
relative viability ([3]; first compound 2.53 µM): 0.377
relative viability ([3]; first compound 8 µM): 0.383
relative viability ([4]; first compound 0.08 µM): 0.995
relative viability ([4]; first compound 0.8 µM): 0.948
relative viability ([4]; first compound 2.53 µM): 0.981
relative viability ([4]; first compound 8 µM): 0.817

LCLC-97TM1
relative viability (Ruboxistaurin + OSI-027; first compound 0.08 µM): 0.508
relative viability (Ruboxistaurin + OSI-027; first compound 0.8 µM): 0.547
relative viability (Ruboxistaurin + OSI-027; first compound 2.53 µM): 0.482
relative viability (Ruboxistaurin + OSI-027; first compound 8 µM): 0.243
relative viability ([1]; first compound 0.08 µM): 0.845
relative viability ([1]; first compound 0.8 µM): 0.487
relative viability ([1]; first compound 2.53 µM): 0.58
relative viability ([1]; first compound 8 µM): 0.685
relative viability ([2]; first compound 0.08 µM): 0.194
relative viability ([2]; first compound 0.8 µM): 0.168
relative viability ([2]; first compound 2.53 µM): 0.242
relative viability ([2]; first compound 8 µM): 0.159
relative viability ([3]; first compound 0.08 µM): 0.217
relative viability ([3]; first compound 0.8 µM): 0.199
relative viability ([3]; first compound 2.53 µM): 0.235
relative viability ([3]; first compound 8 µM): 0.227
relative viability ([4]; first compound 0.08 µM): 0.193
relative viability ([4]; first compound 0.8 µM): 0.172
relative viability ([4]; first compound 2.53 µM): 0.198
relative viability ([4]; first compound 8 µM): 0.16

NCI-H2126
relative viability (Ruboxistaurin + OSI-027; first compound 0.08 µM): 0.811
relative viability (Ruboxistaurin + OSI-027; first compound 0.8 µM): 0.638
relative viability (Ruboxistaurin + OSI-027; first compound 2.53 µM): 0.776
relative viability (Ruboxistaurin + OSI-027; first compound 8 µM): 0.639
relative viability ([1]; first compound 0.08 µM): 1.11
relative viability ([1]; first compound 0.8 µM): 1.05
relative viability ([1]; first compound 2.53 µM): 1.18
relative viability ([1]; first compound 8 µM): 1.16
relative viability ([2]; first compound 0.08 µM): 0.975
relative viability ([2]; first compound 0.8 µM): 0.803
relative viability ([2]; first compound 2.53 µM): 0.923
relative viability ([2]; first compound 8 µM): 0.696
relative viability ([3]; first compound 0.08 µM): 0.341
relative viability ([3]; first compound 0.8 µM): 0.384
relative viability ([3]; first compound 2.53 µM): 0.367
relative viability ([3]; first compound 8 µM): 0.395
relative viability ([4]; first compound 0.08 µM): 0.699
relative viability ([4]; first compound 0.8 µM): 0.65
relative viability ([4]; first compound 2.53 µM): 0.674
relative viability ([4]; first compound 8 µM): 0.623

201T
relative viability (Ruboxistaurin + OSI-027; first compound 0.08 µM): 0.694
relative viability (Ruboxistaurin + OSI-027; first compound 0.8 µM): 0.723
relative viability (Ruboxistaurin + OSI-027; first compound 2.53 µM): 0.675
relative viability (Ruboxistaurin + OSI-027; first compound 8 µM): 0.59
relative viability ([1]; first compound 0.08 µM): 1.12
relative viability ([1]; first compound 0.8 µM): 1.08
relative viability ([1]; first compound 2.53 µM): 1.12
relative viability ([1]; first compound 8 µM): 1.15
relative viability ([2]; first compound 0.08 µM): 0.993
relative viability ([2]; first compound 0.8 µM): 0.815
relative viability ([2]; first compound 2.53 µM): 0.976
relative viability ([2]; first compound 8 µM): 0.825
relative viability ([3]; first compound 0.08 µM): 0.357
relative viability ([3]; first compound 0.8 µM): 0.344
relative viability ([3]; first compound 2.53 µM): 0.353
relative viability ([3]; first compound 8 µM): 0.37
relative viability ([4]; first compound 0.08 µM): 0.31
relative viability ([4]; first compound 0.8 µM): 0.327
relative viability ([4]; first compound 2.53 µM): 0.311
relative viability ([4]; first compound 8 µM): 0.31
